Experimental data as given in publication PMC2790104, “Effects of Acrylamide on the Activity and Structure of Human Brain Creatine Kinase” (International Journal of Molecular Sciences, 2009).

Target: T1, HBCK (human brain-type creatine kinase, human BB-CK) (Homo sapiens, UniProt P12277)
T1 construct: gene CKB; homodimer BB; identified by LC-MS/MS
Test: residual activity after […] h incubation, pH-colorimetric assay (thymol blue, […] nm)
Assay type: biochemical

T1 sequence (P12277 2-381): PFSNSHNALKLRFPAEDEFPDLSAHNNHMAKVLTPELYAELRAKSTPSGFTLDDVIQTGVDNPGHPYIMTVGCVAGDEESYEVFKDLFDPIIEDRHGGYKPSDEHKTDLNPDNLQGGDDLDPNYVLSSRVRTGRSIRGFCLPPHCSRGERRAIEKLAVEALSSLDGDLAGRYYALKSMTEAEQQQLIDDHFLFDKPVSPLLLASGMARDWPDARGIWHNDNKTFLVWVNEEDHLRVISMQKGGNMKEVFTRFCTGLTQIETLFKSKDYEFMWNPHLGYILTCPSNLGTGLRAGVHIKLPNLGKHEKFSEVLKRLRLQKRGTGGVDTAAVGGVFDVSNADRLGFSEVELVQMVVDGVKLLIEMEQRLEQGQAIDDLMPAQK

C=CC(N)=O [acrylamide]
IC50: ~50 mM
